Assay results: article PMC3089059 (Bioorganic & medicinal chemistry, 2011)

What was measured:
[1] = Microsomal stability assay; assay type: in vitro ADME; conditions: after 60 min of incubation in rat microsomal preparations, 4 μM, NADPH
[2] = Plasma stability assay; assay type: in vitro ADME; conditions: after 60 min of incubation in rat plasma, 1 μM, 37 °C
[3] = biological target: T1, JNK1 (Homo sapiens, UniProt P45983); assay type: biochemical
[4] = biological target: T1, JNK1; experiment: DELFIA assay, displacement of biotinylated pepJIP1 from GST-JNK1; assay type: binding
[5] = biological target: JNK1 (Homo sapiens, UniProt P45984); experiment: biochemical; assay type: binding; conditions: ITC
Chain of JNK1 (Homo sapiens, UniProt P45984) (P45984 whole entry): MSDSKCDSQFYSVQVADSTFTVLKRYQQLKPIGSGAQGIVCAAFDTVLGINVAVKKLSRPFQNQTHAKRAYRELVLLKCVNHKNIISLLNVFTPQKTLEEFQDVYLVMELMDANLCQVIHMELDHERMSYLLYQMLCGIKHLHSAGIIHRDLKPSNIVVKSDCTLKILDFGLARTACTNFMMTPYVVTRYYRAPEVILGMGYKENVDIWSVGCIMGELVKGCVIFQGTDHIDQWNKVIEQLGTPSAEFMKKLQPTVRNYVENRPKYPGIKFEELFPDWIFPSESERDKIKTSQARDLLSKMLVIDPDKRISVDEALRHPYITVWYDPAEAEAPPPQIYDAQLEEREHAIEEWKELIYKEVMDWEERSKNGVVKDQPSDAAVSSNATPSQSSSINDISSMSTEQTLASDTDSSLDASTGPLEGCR

T1 sequence (P45983 whole entry): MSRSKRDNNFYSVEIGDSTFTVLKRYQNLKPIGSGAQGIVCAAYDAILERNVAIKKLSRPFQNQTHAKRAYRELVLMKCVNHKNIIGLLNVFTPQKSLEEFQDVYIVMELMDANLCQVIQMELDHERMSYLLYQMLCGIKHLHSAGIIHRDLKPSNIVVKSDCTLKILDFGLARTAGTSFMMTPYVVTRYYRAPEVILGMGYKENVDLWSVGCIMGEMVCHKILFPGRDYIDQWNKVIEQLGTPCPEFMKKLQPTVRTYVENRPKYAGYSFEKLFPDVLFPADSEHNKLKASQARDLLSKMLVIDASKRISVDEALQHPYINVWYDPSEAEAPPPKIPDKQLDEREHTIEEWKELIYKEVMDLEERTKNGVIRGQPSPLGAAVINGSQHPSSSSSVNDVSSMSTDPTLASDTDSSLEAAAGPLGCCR

For `NC(=O)c1ccsc1NC(=O)Cc1cccc(Br)c1` [Compound 33], the degraded [1] was 74% and the plasma stability [2] was “basically unaltered”.

For `N#Cc1ccsc1NC(=O)Cc1cccc2ccccc12` [Compound 5c], the “JNK1 inhibitory activity (in words)” value [3] was “significant loss of JNK1 inhibitory activity”.

`Cc1sc(NC(=O)Cc2cccc3ccccc23)c(C(N)=O)c1C` [Compound 1, 4,5-dimethyl-2-(2-(naphthalen-1-yl)acetamido)thiophene-3-carboxamide] showed an IC50 [4] of 15.8 µM.

With `NC(=O)c1ccsc1NC(=O)Cc1ccccc1Cl` [Compound 26] the degraded [1] was 70% and the plasma stability [2] was “basically unaltered”.

For `COC(=O)c1ccsc1NC(=O)Cc1cccc2ccccc12` [Compound 5b], the “JNK1 inhibitory activity (in words)” value [3] was “significant loss of JNK1 inhibitory activity”.

In the case of `NC(=O)c1ccc(NC(=O)Cc2cccc3ccccc23)s1` [Compound 5f], the “JNK1 inhibitory activity (in words)” value [3] is reported as “completely inactive”.

For `O=C(Cc1cccc2ccccc12)Nc1sccc1C(=O)O` [Compound 5a], the “JNK1 inhibitory activity (in words)” value [3] was “significant loss of JNK1 inhibitory activity”.

For `NC(=O)c1ccsc1NC(=O)Cc1csc2ccccc12` [Compound 25], the degraded [1] was 85%, the “mode of inhibition versus ATP (Lineweaver-Burk)” value ([3]; increasing ATP concentrations) was “ATP competitive inhibitor” and the “mode of inhibition versus substrate ATF2 (Lineweaver-Burk)” value ([3]; increasing substrate ATF2 concentrations) was “mixed substrate competitive inhibitor”. The Kd ([5]; in presence of ATP (saturating non-hydrolizable ATP)) was 1.1 µM, the Kd ([5]; in presence of pepJIP1 (saturating)) was 3.1 µM and the plasma stability [2] was “basically unaltered”.
